According to ChEMBL document CHEMBL5036347, “Design of the naphthyl-diarylpyrimidines as potent non-nucleoside reverse transcriptase inhibitors (NNRTIs) via structure-based extension into the entrance channel” (Eur J Med Chem, 2021):
pEC50: −log10 of the molar value. Values after ≈ are worked out from the molar mass of the structure shown.

Columns and labels:
[1] = Water solubility of compound at pH 2 at 0.1 to 10 mg by HPLC-UV analysis; assay type: physicochemical; settings: dose 0.1-10 mg
[2] = Water solubility of compound at pH 7 at 0.1 to 10 mg by HPLC-UV analysis; assay type: physicochemical; settings: dose 0.1-10 mg
[3] = Water solubility of compound at pH 7.4 at 0.1 to 10 mg by HPLC-UV analysis; assay type: physicochemical; settings: dose 0.1-10 mg
[4] = tested on: Human immunodeficiency virus 1; test: Antiviral activity against HIV1 harboring reverse transcriptase F227L/V106A mutant infected in human MT4 cells assessed as protection against virus-induced cytopathic effect incubated for 5 days by MTT assay; assay type: functional, organism-based; settings: Human immunodeficiency virus 1, MT4, 120 h
[5] = Resistance fold, ratio of EC50 for HIV1 harboring reverse transcriptase Y188L mutant […] to EC50 for wild type HIV1 […]; assay type: functional
[6] = tested on: Human immunodeficiency virus 1; test: Antiviral activity against HIV1 harboring reverse transcriptase Y188L mutant infected in human MT4 cells assessed as protection against virus-induced cytopathic effect incubated for 5 days by MTT assay; assay type: functional, organism-based; settings: Human immunodeficiency virus 1, MT4, 120 h
[7] = Resistance fold, ratio of EC50 for HIV1 harboring reverse transcriptase Y181C mutant […] to EC50 for wild type HIV1 […]; assay type: functional
[8] = tested on: Human immunodeficiency virus 1; test: Antiviral activity against HIV1 harboring reverse transcriptase E138K mutant infected in human MT4 cells assessed as protection against virus-induced cytopathic effect incubated for 5 days by MTT assay; assay type: functional, organism-based; settings: Human immunodeficiency virus 1, MT4, 120 h
[9] = Resistance fold, ratio of EC50 for HIV1 harboring reverse transcriptase E138K mutant […] to EC50 for wild type HIV1 […]; assay type: functional
[10] = tested on: Human immunodeficiency virus 1; test: Antiviral activity against HIV1 harboring reverse transcriptase Y181C mutant infected in human MT4 cells assessed as protection against virus-induced cytopathic effect incubated for 5 days by MTT assay; assay type: functional, organism-based; settings: Human immunodeficiency virus 1, MT4, 120 h
[11] = tested on: Human immunodeficiency virus 1; test: Anti-HIV activity against HIV-1 IIIB infected in human MT4 cells assessed as reduction in virus-induced cytopathic effect incubated for 5 days by MTT assay; assay type: functional, organism-based; settings: Human immunodeficiency virus 1, IIIB, MT4, 120 h
[12] = Selectivity index, ratio of CC50 for cytotoxicity against human MT4 cells to EC50 of Anti-HIV activity against HIV-1 IIIB infected in human MT4; assay type: toxicity, cell-based; settings: read-out: Selectivity Index
[13] = Resistance fold, ratio of EC50 for HIV1 harboring reverse transcriptase K103N/Y181C double mutant […] to EC50 for wild type HIV1 […]; assay type: functional
[14] = tested on: Human immunodeficiency virus 1; test: Antiviral activity against HIV1 harboring reverse transcriptase L100I mutant infected in human MT4 cells assessed as protection against virus-induced cytopathic effect incubated for 5 days by MTT assay; assay type: functional, organism-based; settings: Human immunodeficiency virus 1, MT4, 120 h
[15] = Resistance fold, ratio of EC50 for HIV1 harboring reverse transcriptase K103N mutant […] to EC50 for wild type HIV1 […]; assay type: functional
[16] = tested on: Human immunodeficiency virus 1; test: Antiviral activity against HIV1 harboring reverse transcriptase K103N/Y181C double mutant infected in human MT4 cells assessed as protection against virus-induced cytopathic effect incubated for 5 days by MTT assay; assay type: functional, organism-based; settings: Human immunodeficiency virus 1, MT4, 120 h
[17] = tested on: Human immunodeficiency virus 1; test: Antiviral activity against HIV1 harboring reverse transcriptase K103N mutant infected in human MT4 cells assessed as protection against virus-induced cytopathic effect incubated for 5 days by MTT assay; assay type: functional, organism-based; settings: Human immunodeficiency virus 1, MT4, 120 h
[18] = tested on: Human immunodeficiency virus 2; test: Anti-HIV activity against HIV2 ROD infected in human MT4 cells assessed as reduction in virus-induced cytopathic effect incubated for 5 days by MTT assay; assay type: functional, organism-based; settings: Human immunodeficiency virus 2, ROD, MT4, 120 h
[19] = Resistance fold, ratio of EC50 for HIV1 harboring reverse transcriptase F227L/V106A double mutant […] to EC50 for wild type HIV1 […]; assay type: functional
[20] = Cytotoxicity against human MT4 cells assessed as reduction in cell viability incubated for 5 days by MTT assay; assay type: cell-based; settings: human, MT4 cells; time 5 day

Structure (SMILES) | solubility [1] | solubility [2] | solubility [3] | other results
Br.COc1cc2cc(C#N)ccc2c(OC)c1Oc1cc(N)nc(Nc2ccc(C#N)cc2)n1 | < 1 µg/mL | < 1 µg/mL | < 1 µg/mL | –
CC(=O)O.CCNc1cc(Oc2c(OC)cc3cc(C#N)ccc3c2OC)nc(Nc2ccc(C#N)cc2)n1 | 1 µg/mL | < 1 µg/mL | 19 µg/mL | –
Br.CCNc1cc(Oc2c(OC)cc3cc(C#N)ccc3c2OC)nc(Nc2ccc(C#N)cc2)n1 | 1 µg/mL | 1 µg/mL | 1 µg/mL | –
Cc1cn([C@H]2C[C@H](N=[N+]=[N-])[C@@H](CO)O2)c(=O)[nH]c1=O [ZIDOVUDINE] | – | – | – | pEC50 [4]: 7.51; Ratio EC50 [5]: 1; pEC50 [6]: 7.54; Ratio EC50 [7]: 1; pEC50 [8]: 7.29; Ratio EC50 [9]: 2; pEC50 [10]: 7.51; pEC50 [11]: 7.54; selectivity ratio [12]: > 240; Ratio EC50 [13]: 1; pEC50 [14]: 8.00; Ratio EC50 [15]: 2; pEC50 [16]: 7.48; pEC50 [17]: 7.49; pEC50 [18]: 7.70; Ratio EC50 [19]: 1; CC50 at 120 h [20]: > 2000 nM
COc1cc2cc(C#N)ccc2c(OC)c1Oc1cc(N2CCC(O)C2)nc(Nc2ccc(C#N)cc2)n1.O=C(O)C(O)C(O)C(=O)O (configuration not stated) | < 1 µg/mL | < 1 µg/mL | 3 µg/mL | –
CCNc1cc(Oc2c(OC)cc3cc(C#N)ccc3c2OC)nc(Nc2ccc(C#N)cc2)n1.O=S(=O)(O)O | 9 µg/mL | 4 µg/mL | 115 µg/mL | –
COc1cc2cc(C#N)ccc2c(OC)c1Oc1cc(N2CCC(O)C2)nc(Nc2ccc(C#N)cc2)n1.Cl (configuration not stated) | < 1 µg/mL | < 1 µg/mL | 2 µg/mL | –
CCNc1cc(Oc2c(OC)cc3cc(C#N)ccc3c2OC)nc(Nc2ccc(C#N)cc2)n1.O=CO | < 1 µg/mL | < 1 µg/mL | 2 µg/mL | –
CCNc1cc(Oc2c(OC)cc3cc(C#N)ccc3c2OC)nc(Nc2ccc(C#N)cc2)n1.O=C(O)/C=C\C(=O)O | 2 µg/mL | 1 µg/mL | 47 µg/mL | –
COc1cc2cc(C#N)ccc2c(OC)c1Oc1cc(N2CCC(O)C2)nc(Nc2ccc(C#N)cc2)n1.Cc1ccc(S(=O)(=O)O)cc1 (configuration not stated) | 8 µg/mL | 6 µg/mL | 13 µg/mL | –
COc1cc2cc(C#N)ccc2c(OC)c1Oc1cc(N2CCC(O)C2)nc(Nc2ccc(C#N)cc2)n1.O=C(O)/C=C\C(=O)O (configuration not stated) | < 1 µg/mL | < 1 µg/mL | 5 µg/mL | –
Cc1ccnc2c1NC(=O)c1cccnc1N2C1CC1 [NEVIRAPINE] | – | – | – | pEC50 [8]: 6.48; pEC50 [10]: 5.15; pEC50 [11]: 4.66; pEC50 [17]: 5.07
COc1cc2cc(C#N)ccc2c(OC)c1Oc1cc(N2CCC(O)C2)nc(Nc2ccc(C#N)cc2)n1.CS(=O)(=O)O (configuration not stated) | < 1 µg/mL | < 1 µg/mL | 2 µg/mL | –
Br.COc1cc2cc(C#N)ccc2c(OC)c1Oc1cc(N2CCC(O)C2)nc(Nc2ccc(C#N)cc2)n1 (configuration not stated) | < 1 µg/mL | < 1 µg/mL | < 1 µg/mL | –
O=C1Nc2ccc(Cl)cc2[C@@](C#CC2CC2)(C(F)(F)F)O1 [EFAVIRENZ] | – | – | – | pEC50 [4]: 6.48; pEC50 [6]: 8.14; pEC50 [8]: 8.28; pEC50 [10]: 8.13; pEC50 [11]: 8.37; pEC50 [14]: 7.02; pEC50 [16]: 6.66; pEC50 [17]: 6.85
COc1cc2cc(C#N)ccc2c(OC)c1Oc1cc(N)nc(Nc2ccc(C#N)cc2)n1.O=CO | 1 µg/mL | < 1 µg/mL | 2 µg/mL | –
COc1cc2cc(C#N)ccc2c(OC)c1Oc1cc(N)nc(Nc2ccc(C#N)cc2)n1.O=C(O)/C=C\C(=O)O | 13 µg/mL | 7 µg/mL | 28 µg/mL | –
COc1cc2cc(C#N)ccc2c(OC)c1Oc1cc(N)nc(Nc2ccc(C#N)cc2)n1.CS(=O)(=O)O | 4 µg/mL | < 1 µg/mL | 11 µg/mL | –
Cc1cc(C#N)cc(C)c1Oc1nc(Nc2ccc(C#N)cc2)nc(N)c1Br [ETRAVIRINE] | 127 µg/mL (≈ 292 µM) | < 1 µg/mL | 1 µg/mL (≈ 2.3 µM) | pEC50 [4]: 7.57; pEC50 [6]: 7.52; pEC50 [8]: 7.68; pEC50 [10]: 7.68; pEC50 [14]: 7.85; pEC50 [16]: 7.28; pEC50 [17]: 8.42
COc1cc2cc(C#N)ccc2c(OC)c1Oc1cc(N)nc(Nc2ccc(C#N)cc2)n1.O=C(O)C(O)C(O)C(=O)O | < 1 µg/mL | < 1 µg/mL | 29 µg/mL | –

Structure (SMILES) | solubility [1] | solubility [2] | solubility [3] | other results
COc1cc2cc(C#N)ccc2c(OC)c1Oc1cc(N2CCC(O)C2)nc(Nc2ccc(C#N)cc2)n1.O=C(O)CC(O)(CC(=O)O)C(=O)O (configuration not stated) | < 1 µg/mL | < 1 µg/mL | < 2 µg/mL | –
CC(=O)O.COc1cc2cc(C#N)ccc2c(OC)c1Oc1cc(N2CCC(O)C2)nc(Nc2ccc(C#N)cc2)n1 (configuration not stated) | < 1 µg/mL | < 1 µg/mL | 3 µg/mL | –
COc1cc2cc(C#N)ccc2c(OC)c1Oc1cc(N)nc(Nc2ccc(C#N)cc2)n1.O=C(O)C(F)(F)F | < 1 µg/mL | 1 µg/mL | 3 µg/mL | –
COc1cc2cc(C#N)ccc2c(OC)c1Oc1cc(N)nc(Nc2ccc(C#N)cc2)n1.Cl | 6 µg/mL | 1 µg/mL | 84 µg/mL | –
CCNc1cc(Oc2c(OC)cc3cc(C#N)ccc3c2OC)nc(Nc2ccc(C#N)cc2)n1.O=C(O)C(F)(F)F | < 1 µg/mL | < 1 µg/mL | < 1 µg/mL | –
COc1cc2cc(C#N)ccc2c(OC)c1Oc1cc(N)nc(Nc2ccc(C#N)cc2)n1.O=S(=O)(O)O | < 1 µg/mL | < 1 µg/mL | 72 µg/mL | –
COc1cc2cc(C#N)ccc2c(OC)c1Oc1cc(N)nc(Nc2ccc(C#N)cc2)n1.I | < 1 µg/mL | < 1 µg/mL | 1 µg/mL | –
CCNc1cc(Oc2c(OC)cc3cc(C#N)ccc3c2OC)nc(Nc2ccc(C#N)cc2)n1.I | 1 µg/mL | < 1 µg/mL | 1 µg/mL | –
COc1cc2cc(C#N)ccc2c(OC)c1Oc1cc(N2CCC(O)C2)nc(Nc2ccc(C#N)cc2)n1.O=CO (configuration not stated) | < 1 µg/mL | < 1 µg/mL | 3 µg/mL | –
COc1cc2cc(C#N)ccc2c(OC)c1Oc1cc(N2CCC(O)C2)nc(Nc2ccc(C#N)cc2)n1.O=C(O)C(F)(F)F (configuration not stated) | < 1 µg/mL | < 1 µg/mL | 1 µg/mL | –
COc1cc2cc(C#N)ccc2c(OC)c1Oc1cc(N)nc(Nc2ccc(C#N)cc2)n1.O=C(O)CC(O)(CC(=O)O)C(=O)O | < 1 µg/mL | < 1 µg/mL | 4 µg/mL | –
COc1cc2cc(C#N)ccc2c(OC)c1Oc1cc(N2CCC(O)C2)nc(Nc2ccc(C#N)cc2)n1.O=S(=O)(O)O (configuration not stated) | < 1 µg/mL | < 1 µg/mL | 2 µg/mL | –
CCNc1cc(Oc2c(OC)cc3cc(C#N)ccc3c2OC)nc(Nc2ccc(C#N)cc2)n1.O=C(O)C(O)C(O)C(=O)O | 1 µg/mL | < 1 µg/mL | 29 µg/mL | –
COc1cc2cc(C#N)ccc2c(OC)c1Oc1cc(N2CCC(O)C2)nc(Nc2ccc(C#N)cc2)n1.I (configuration not stated) | < 1 µg/mL | < 1 µg/mL | 9 µg/mL | –
CCNc1cc(Oc2c(OC)cc3cc(C#N)ccc3c2OC)nc(Nc2ccc(C#N)cc2)n1.Cl | 9 µg/mL | < 1 µg/mL | 11 µg/mL | –
CCNc1cc(Oc2c(OC)cc3cc(C#N)ccc3c2OC)nc(Nc2ccc(C#N)cc2)n1.Cc1ccc(S(=O)(=O)O)cc1 | < 1 µg/mL | < 1 µg/mL | 12 µg/mL | –
CC(=O)O.COc1cc2cc(C#N)ccc2c(OC)c1Oc1cc(N)nc(Nc2ccc(C#N)cc2)n1 | < 1 µg/mL | < 1 µg/mL | < 1 µg/mL | –
CCNc1cc(Oc2c(OC)cc3cc(C#N)ccc3c2OC)nc(Nc2ccc(C#N)cc2)n1.CS(=O)(=O)O | < 1 µg/mL | < 1 µg/mL | 1 µg/mL | –
CCNc1cc(Oc2c(OC)cc3cc(C#N)ccc3c2OC)nc(Nc2ccc(C#N)cc2)n1.O=C(O)CC(O)(CC(=O)O)C(=O)O | 1 µg/mL | < 1 µg/mL | 1 µg/mL | –
COc1cc2cc(C#N)ccc2c(OC)c1Oc1cc(N)nc(Nc2ccc(C#N)cc2)n1.Cc1ccc(S(=O)(=O)O)cc1 | 2 µg/mL | < 1 µg/mL | 2 µg/mL | –
